According to US11406709B2, “Therapeutic and research application of PDCL3” (TRUSTEES OF BOSTON UNIVERSITY, priority 2014, dated 2022):
Structures can show the parent of a compound that is named as a salt. Residues, ends and D or L forms follow the SMILES beside them. *: point of attachment. Cbz = O=C(OCc1ccccc1)*

How the values were obtained:
[1] = target: T1, PDCL3 (Homo sapiens, UniProt Q9H2J4); test: High throughput screening of LOPAC1280 for small molecule inhibitors of PDCL3; conditions: LOPAC1280, 1,280 pharmacologically active compounds
T1 sequence (Q9H2J4 1-239): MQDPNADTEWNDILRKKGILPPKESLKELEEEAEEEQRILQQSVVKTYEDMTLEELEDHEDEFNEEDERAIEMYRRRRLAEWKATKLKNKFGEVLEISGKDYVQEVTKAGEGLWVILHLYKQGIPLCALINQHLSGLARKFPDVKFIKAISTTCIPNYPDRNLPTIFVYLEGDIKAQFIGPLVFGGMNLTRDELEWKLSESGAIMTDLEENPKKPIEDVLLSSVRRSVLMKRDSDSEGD
Text: (§1) Given that PDCL3 plays a fundamental role in maturation and folding of receptor tyrosine kinases (RTKs), such as VEGFR-2, and considering that activity of these RTKs are cornerstone of tumor growth and metastasis, it was decided to screen for small molecule inhibitors that could antagonize PDCL3 function in tumor cells. LOPAC1280 (a library of Pharmacologically Active Compounds), which is a collection of 1,280 pharmacologically active compounds, was used. The library is most commonly used to validate new drug discovery assays and characterize orphan targets. 16 lead compounds were identified as PDCL3 inhibitors and their potency and efficacy in inhibition of PDCL3 was validated. The structures of these 16 lead compounds, namely, Reserpine, DAPH, AC-93253 iodide, Emodin, Sunitinib malate, GW2974, Urapidil Hydrochloride, Mecamylamine hydrochloride, (−)-MK-801 hydrogen maleate, AGK2, Tyrphostin AG 112, Tyrphostin 23, Tyrphostin 51, I-Ome-Tyrophostin AG 538, and Isoliquiritgenin are provided herein at FIG. 14B.
as §1, with “validated. […] Chemical formulas for” for “validated. The structures of”, “these compounds” for “these 16 lead compounds, namely, Reserpine, DAPH, AC-93253 iodide, Emodin, Sunitinib malate, GW2974, Urapidil Hydrochloride, Mecamylamine hydrochloride, (−)-MK-801 hydrogen maleate, AGK2, Tyrphostin AG 112, Tyrphostin 23, Tyrphostin 51, I-Ome-Tyrophostin AG 538, and Isoliquiritgenin”, “herein in” for “herein at”

[2] = tested on: VEGFR-2; test: Cycloheximide-chase / VEGF-induced downregulation of VEGFR-2; type: cell-based; conditions: PAE cells, cycloheximide 20 μg/ml, 90 min
Procedure: FIG. 2A. Illustrated is the schematic of treatment of cells with cycloheximide (CHX) and VEGF. PAE cells co-expressing VEGFR-2 with empty vector (pMSCV) or PDCL3 were incubated with CHX for 90 minutes followed by stimulation with VEGF for indicated times. Whole cell lysates was blotted for VEGFR-2 and loading control protein, PLCγ1. FIG. 2B. Shown are the quantification of the half-life of mature VEGFR-2 and pre-mature VEGFR-2 based on the VEGFR-2 blot from the panel FIG. 2A. FIGS. 2C-2D. PAE cells co-expressing VEGFR-2 with empty vector (pMSCV) or PDCL3 were stimulated with VEGF for indicated times and whole cell lysates were processed as panel FIG. 2A.
PAE cells expressing VEGFR-2 alone or together with PDCL3 were serum-starved for overnight followed by incubation of cells with serum-free DMEM medium containing cycloheximide (20 μg/ml, 90 min). Cells then were stimulated with VEGF for various times to downregulate cell surface VEGFR-2. Cells were lysed and whole cell lysates was blotted for VEGFR-2 using anti-VEGFR-2 antibody. For measuring half-life of PDCL3 and HA-tagged mutant PDCL3, cells were incubated with serum-free DMEM medium containing cycloheximide (20 μg/ml) for indicated times and cells were lysed and whole cell lysates was blotted for PDCL3.

[3] = tested on: VEGFR-2; test: In vitro transcription/translation of VEGFR-2; type: biochemical
Procedure: FIG. 1A. HEK-293 cells expressing VEGFR-2 were transfected with different concentrations of C-terminus Myc-tagged PDCL3. After 48 hours cells were lysed and whole cell lysates (WCL) were blotted for VEGFR-2, PDCL3 and Hsp70 for loading control. Quantification of premature (newly synthesized and partially glycosylated VEGFR-2 corresponding to lower molecular weight) and mature (fully glycosylated) forms of VEGFR-2 is shown. Mean results of three independent experiments are shown. *P=0.04 and […]. FIG. 1B. Human umbilical vein endothelial cells (HUVECs) were transfected with control siRNA or PDCL3-siRNA. After 48 hours cells serum-starved for overnight followed by stimulation with VEGF for 10 minutes. Cells were lysed and whole cell lysates were blotted for phospho-Y1054-VEGFR-2, total VEGFR-2, PDCL3 and Hsp70 for loading control. FIG. 1C. Thermo-induced aggregation of VEGFR-2 was measured using PSA dye as described in the materials and method section. FIG. 1D. In vitro transcription/translation of VEGFR-2 in the absence or presence of exogenous recombinant PDCL3 was performed as described in the materials and method section and schematic of the procedure is shown. FIG. 1E. In vitro translated VEGFR-2 protein in the absence or presence of exogenous recombinant PDCL3 was blotted for VEGFR-2. FIG. 1F. […]

Structure (SMILES): CC12NC(Cc3ccccc31)c1ccccc12.O=C(O)/C=C/C(=O)O (single isomer, unassigned; (-)) [(−)-MK-801 hydrogen maleate, 1-Methyl-16-azatetracyclo[7.6.1.02,7.010,15]hexadeca-2,4,6,10,12,14-hexaene (2E)-2-butenedioate (1:1)]
- identified as PDCL3 inhibitor / specifically targeting PDCL3 [1]: identified as specifically targeting PDCL3

Structure (SMILES): CC[n+]1c(/C=C/C=C2/N(C)c3ccccc3C2(C)C)sc2ccccc21.[I-] [AC-93253 iodide, 3-Ethyl-2-[(1E,3E)-3-(1,3,3-trimethyl-1,3-dihydro-2H-indol-2-ylidene)-1-propen-1-yl]-1,3-benzothiazol-3-ium iodide]
- identified as PDCL3 inhibitor / specifically targeting PDCL3 [1]: identified as specifically targeting PDCL3

Structure (SMILES): N#C/C(=C\c1ccc(-c2cc(Cl)ccc2Cl)o1)C(=O)Nc1cccc2ncccc12 [AGK2, (2E)-2-Cyano-3-[5-(2,5-dichlorophenyl)-2-furyl]-N-(5-quinolinyl)acrylamide]
- identified as PDCL3 inhibitor / specifically targeting PDCL3 [1]: identified as specifically targeting PDCL3

Structure (SMILES): C[C@@H]1C[C@@H]([C@H](O)CC2CC(=O)NC(=O)C2)C(=O)[C@@H](C)C1 [Cycloheximide]
- VEGFR-2 protein synthesis [2]: inhibited VEGFR-2 protein synthesis

Structure (SMILES): O=C1NC(=O)c2cc(Nc3ccccc3)c(Nc3ccccc3)cc21 [DAPH, 5,6-Dianilino-1H-isoindole-1,3(2H)-dione]
- identified as PDCL3 inhibitor / specifically targeting PDCL3 [1]: identified as specifically targeting PDCL3

Structure (SMILES): Cc1cc(O)c2c(c1)C(=O)c1cc(O)cc(O)c1C2=O [Emodin, 1,3,8-Trihydroxy-6-methyl-9,10-anthraquinone]
- identified as PDCL3 inhibitor / specifically targeting PDCL3 [1]: identified as specifically targeting PDCL3

Structure (SMILES): CN(C)c1cc2c(Nc3ccc4c(cnn4Cc4ccccc4)c3)ncnc2cn1 [GW2974, N4-(1-Benzyl-1H-indazol-5-yl)-N6,N6-dimethylpyrido[3,4-d]pyrimidine-4,6-diamine]
- identified as PDCL3 inhibitor / specifically targeting PDCL3 [1]: identified as specifically targeting PDCL3

Structure (SMILES): COc1cc(C=C(C#N)C(=O)c2ccc(O)c(O)c2)cc(I)c1O [I-Ome-Tyrophostin AG 538, α-Cyano-(3-methoxy-4-hydroxy-5-iodocinnamoyl)-(3′,4′-dihydroxyphenyl)ketone]
- identified as PDCL3 inhibitor / specifically targeting PDCL3 [1]: identified as specifically targeting PDCL3

Structure (SMILES): O=C(/C=C/c1ccc(O)cc1)c1ccc(O)cc1O [Isoliquiritgenin, (E)-1-(2,4-dihydroxyphenyl)-3-(4-hydroxyphenyl)prop-2-en-1-one]
- identified as PDCL3 inhibitor / specifically targeting PDCL3 [1]: identified as specifically targeting PDCL3

Structure (SMILES): CC(C)C[C@@H](C=O)NC(=O)[C@H](CC(C)C)NC(=O)[C@H](CC(C)C)NC(=O)OCc1ccccc1 [MG132] (Cbz-Leu-Leu-Leu-aldehyde)
- yield of in vitro translated VEGFR-2 [3]: this effect of PDCL3 was further augmented

Structure (SMILES): CNC1(C)C2CCC(C2)C1(C)C.Cl (centres unmarked) [Mecamylamine hydrochloride, N,2,3,3-Tetramethylbicyclo[2.2.1]heptan-2-amine hydrochloride (1:1)]
- identified as PDCL3 inhibitor / specifically targeting PDCL3 [1]: identified as specifically targeting PDCL3

Structure (SMILES): COC(=O)[C@H]1[C@H]2C[C@@H]3c4[nH]c5cc(OC)ccc5c4CCN3C[C@H]2C[C@@H](OC(=O)c2cc(OC)c(OC)c(OC)c2)[C@@H]1OC [Reserpine, Methyl (3β,16β,17α,18β,20α)-11,17-dimethoxy-18-[(3,4,5-trimethoxybenzoyl)oxy]yohimban-16-carboxylate]
- identified as PDCL3 inhibitor / specifically targeting PDCL3 [1]: identified as specifically targeting PDCL3

Structure (SMILES): CCN(CC)CCNC(=O)c1c(C)[nH]c(/C=C2\C(=O)Nc3ccc(F)cc32)c1C.O=C(O)C[C@H](O)C(=O)O [Sunitinib malate, (2S)-2-Hydroxysuccinic acid-N-[2-(diethylamino)ethyl]-5-[(Z)-(5-fluoro-2-oxo-1,2-dihydro-3H-indol-3-ylidene)methyl]-2,4-dimethyl-1H-pyrrole-3-carboxamide (1:1)]
- identified as PDCL3 inhibitor / specifically targeting PDCL3 [1]: identified as specifically targeting PDCL3

Structure (SMILES): N#CC(C#N)=Cc1ccc(O)c(O)c1 [Tyrphostin 23, (3,4-Dihydroxybenzylidene)malononitrile]
- identified as PDCL3 inhibitor / specifically targeting PDCL3 [1]: identified as specifically targeting PDCL3

Structure (SMILES): N#CC(C#N)=C(N)/C(C#N)=C/c1cc(O)c(O)c(O)c1 [Tyrphostin 51, (3Z)-2-Amino-4-(3,4,5-trihydroxyphenyl)-1,3-butadiene-1,1,3-tricarbonitrile]
- identified as PDCL3 inhibitor / specifically targeting PDCL3 [1]: identified as specifically targeting PDCL3

Structure (SMILES): N#CC(C#N)=C(N)/C(C#N)=C/c1ccc(O)cc1 [Tyrphostin AG 112, (3Z)-2-Amino-4-(4-hydroxyphenyl)-1,3-butadiene-1,1,3-tricarbonitrile]
- identified as PDCL3 inhibitor / specifically targeting PDCL3 [1]: identified as specifically targeting PDCL3

Structure (SMILES): COc1ccccc1N1CCN(CCCNc2cc(=O)n(C)c(=O)n2C)CC1 [Urapidil Hydrochloride, 6-({3-[4-(2-Methoxyphenyl)-1-piperazinyl]propyl}amino)-1,3-dimethyl-2,4(1H,3H)-pyrimidinedione]
- identified as PDCL3 inhibitor / specifically targeting PDCL3 [1]: identified as specifically targeting PDCL3
